Data: PMC12340087, “Guanine is an inhibitor of c-jun terminal kinases” (Scientific Reports, 2025)
pIC50: −log10 of the molar value.

Experiments:
Experiment in all cases: radiometric […]-ATP kinase assay, ATF2 substrate, ATP at apparent Km
Format in all cases: biochemical
[1] = target: T1, JNK1 (Homo sapiens, UniProt P45983)
T1 construct: gene MAPK8; untagged JNK1 (amino acids 1-384)

[2] = target: T2, JNK3 (Homo sapiens, UniProt P53779)
T2 construct: gene MAPK10; GST-tagged JNK3 (amino acids 1-426)

[3] = target: T3, JNK2 (Homo sapiens, UniProt P45984)
T3 construct: gene MAPK9; untagged JNK2 (amino acids 1-424)
T3 sequence (P45984 whole entry, the tested form may be a part): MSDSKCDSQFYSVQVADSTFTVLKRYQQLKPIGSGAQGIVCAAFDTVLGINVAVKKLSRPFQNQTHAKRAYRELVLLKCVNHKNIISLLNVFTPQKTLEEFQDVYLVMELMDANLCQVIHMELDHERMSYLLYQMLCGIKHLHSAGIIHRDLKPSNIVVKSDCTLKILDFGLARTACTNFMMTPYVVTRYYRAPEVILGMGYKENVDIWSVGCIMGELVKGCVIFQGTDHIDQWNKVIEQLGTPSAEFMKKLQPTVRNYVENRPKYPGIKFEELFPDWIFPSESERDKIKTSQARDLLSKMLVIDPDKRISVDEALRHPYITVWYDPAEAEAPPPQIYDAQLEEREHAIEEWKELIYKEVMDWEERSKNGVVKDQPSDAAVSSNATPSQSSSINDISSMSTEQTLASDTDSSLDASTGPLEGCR

T2 sequence (P53779 1-426): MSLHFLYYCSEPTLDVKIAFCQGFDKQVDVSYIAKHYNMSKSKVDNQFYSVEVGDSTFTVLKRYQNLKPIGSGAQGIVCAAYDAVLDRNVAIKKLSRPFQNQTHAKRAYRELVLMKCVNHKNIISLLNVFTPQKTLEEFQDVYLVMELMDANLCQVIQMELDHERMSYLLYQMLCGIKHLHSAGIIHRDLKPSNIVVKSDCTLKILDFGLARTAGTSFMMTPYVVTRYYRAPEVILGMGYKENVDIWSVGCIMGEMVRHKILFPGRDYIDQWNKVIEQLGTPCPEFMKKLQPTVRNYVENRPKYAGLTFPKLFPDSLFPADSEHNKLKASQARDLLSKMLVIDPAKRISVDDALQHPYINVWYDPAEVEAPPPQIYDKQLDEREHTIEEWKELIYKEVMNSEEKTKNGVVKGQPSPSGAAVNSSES
T1 sequence (P45983 1-384 isoform P45983-2): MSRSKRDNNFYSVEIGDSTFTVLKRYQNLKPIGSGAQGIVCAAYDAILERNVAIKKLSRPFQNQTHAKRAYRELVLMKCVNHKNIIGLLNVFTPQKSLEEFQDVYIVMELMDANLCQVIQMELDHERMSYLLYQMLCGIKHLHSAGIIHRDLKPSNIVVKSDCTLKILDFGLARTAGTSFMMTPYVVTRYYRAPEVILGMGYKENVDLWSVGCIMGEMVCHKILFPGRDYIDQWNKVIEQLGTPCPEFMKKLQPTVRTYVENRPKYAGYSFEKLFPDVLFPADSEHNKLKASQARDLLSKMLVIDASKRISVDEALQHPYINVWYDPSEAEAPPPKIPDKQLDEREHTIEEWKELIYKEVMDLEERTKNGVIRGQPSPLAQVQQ

## Nc1nc2nc[nH]c2c(=O)[nH]1 [G, guanine]
[1]
  pIC50: 3.70
[2]
  pIC50: 3.48
[3]
  pIC50: 3.74
